Data: patent publication US6956030B2, “Use of mometasone furoate for treating upper airway diseases” (Schering Corporation, priority 1994, dated 2005)

Legend:
plasma cortisol [1] = experiment: Phase I rising single-dose safety and tolerance study, metered dose inhaler, 24-hour plasma cortisol; format: in vivo, healthy male volunteers
Description: Several Phase I studies were conducted using mometasone furoate formulated for delivery as a suspension in a pressurized metered dose inhaler (MDI). In a randomized, third-party blinded, placebo-controlled rising single-dose safety and tolerance study, aerosolized mometasone furoate was administered by a metered dose inhaler to eight healthy male volunteers. Doses were administered at 11 p.m. and plasma cortisol concentrations were measured during the following 24-hour period.

plasma cortisol [2] = experiment: Phase I rising single-dose study, aqueous nasal spray suspension, 24-hour plasma cortisol; format: in vivo, healthy male volunteers; conditions: intranasal single doses 1000, 2000 and 4000 mcg at 11 pm
Description: Several Phase I studies have been completed using the aqueous nasal spray suspension formulation of mometasone furoate monohydrate. In a randomized, third party-blinded, placebo-controlled rising single-dose safety and tolerance study, the aqueous nasal spray suspension formulation was administered to eight healthy male volunteers. Doses were administered at 11 pm, and plasma cortisol concentrations were measured during the following 24-hour period.

[3] = Aqueous suspension once-a-day in allergic rhinitis (summary statement); format: in vivo
Text: In treating allergic and non-allergic rhinitis, the aqueous suspension of mometasone furoate may be administered intranasally by inserting an appropriate device (such as the pump spray bottle used to deliver […]® Nasal Spray as well as the spray bottle disclosed in the Schering Corporation Industrial Design Deposit DM/026304 registered Jun. 1, 1993) into each nostril. Active drug is then expelled (nasal spray device) or could be nasally inhaled (sniffed) as a powder. Efficacy is generally assessed in a double blind fashion by a reduction in nasal symptoms (e.g., sneezing, itching, congestion, and discharge). Other objective measurements (e.g., nasal peak flow and resistance) can be used as supportive indices of efficacy. For treatment of allergic and/or inflammatory diseases of the lower airways and lung parenchyma especially diseases such as asthma, chronic obstructive pulmonary disease (“COPD”), granulomatus diseases of the lungs and lower airway passage, non-malignant proliferative disease of the lungs e.g., idiopathic pulmonary fibrosis, hypersensitivity pneumonitis and bronchopulmonary dysplasia the following dosage ranges of mometasone furoate may be used: […] Typically 2-4 mL of the aqueous suspension of mometasone furoate monohydrate may be placed in a plastic nebulizer container and the patient would inhale for 2-10 minutes.

[4] = Drug metabolism/clinical pharmacology study: absorption and excretion of total radioactivity after ^3H-MF by various routes; format: in vivo, normal healthy male volunteers
Description: In addition, a single-dose absorption, excretion and metabolism study using 200 mcg of ^3H-mometasone furoate as the nasal spray formulation was conducted in 6 normal male volunteers. When systemic absorption (based on urinary excretion) was compared to an intravenously administered dose of ^3H-mometasone furoate, it was 8%.
A drug metabolism and clinical pharmacology study was conducted by administering (by various routes) tritium-labeled mometasone furoate (“^3H-MF”) to 6 groups of 6 normal male volunteers in each group. Blood and urine samples were collected for measurement of total drug (including metabolites).
The objectives of these studies in male volunteers were to determine the absorption, metabolism and excretion of ^3H-labeled mometasone furoate (“^3H-MF”) following administration by oral swallow as a solution and as an aqueous suspension of the monohydrate, by oral inhalation as a suspension from a standard metered dose inhaler (MDI) and from a metered dose inhaler containing a spacer device (Gentlehaler), by nasal inhalation as an aqueous suspension of the mometasone furoate monohydrate from a nasal spray unit and by intravenous injection as a solution.
Thirty-six (n=6 per treatment group) normal healthy male volunteers between the ages of 19 and 40 yr. (average 29 yr.) having weights in accordance with current actuarial tables (+10%) were enrolled in these single dose studies. All subjects were determined to be in good health by their medical history, physical examinations, clinical and laboratory tests.
Plasma, urine, expired air filters, Respirgard and fecal samples were collected and assayed for radioactivity content. The limit of quantitation (LOQ) for plasma radioactivity ranged from 0.103 to 0.138 ng eq/ml., except for the nasal spray treatment where the LOQ was 0.025 ng eq/ml. Selected plasma, urine and fecal samples were analyzed for metabolite profiles.
Pharmacokinetics—The mean (n=6) plasma concentrations of total radioactivity are illustrated in Summary FIG. 1 and the mean (n=6) pharmacokinetic parameters derived from total plasma radioactivity are presented in Table 2.

## C[C@@H]1C[C@H]2[C@@H]3CCC4=CC(=O)C=C[C@]4(C)[C@@]3(Cl)[C@@H](O)C[C@]2(C)[C@@]1(OC(=O)c1ccco1)C(=O)CCl [mometasone furoate]
Plasma cortisol [1]; single dose 1000 mcg by MDI at 11 p.m.
  reduction of 24-hour area under the curve plasma cortisol profile (AUC 0-24) compared to placebo: 13%
Plasma cortisol [1]; single dose 2000 mcg by MDI at 11 p.m.
  reduction of 24-hour area under the curve plasma cortisol profile (AUC 0-24) compared to placebo: 23%
Plasma cortisol [1]; single dose 4000 mcg by MDI at 11 p.m.
  reduction of 24-hour area under the curve plasma cortisol profile (AUC 0-24) compared to placebo: 36%
Plasma cortisol [2]
  effect on 24-hour area under the curve plasma cortisol profile (AUC 0-24) compared to placebo: did not significantly affect
[3]; 25 up to 1600 micrograms once-a-day
  safety and efficacy in allergic rhinitis: safe and effective
[3]; once-a-day
  dose dependence of treatment effect: no improvement in treatment is typically found above 400 micrograms a day
[4]; all dosage forms, single dose
  safety and tolerability: safe and well tolerated
[4]; male, human, plasma, inhaled or intranasal, 200 ug, nasal spray 200 mcg, single dose, read-out: bioavailability of mometasone furoate
  bioavailability: < 1%
[4]; swallowed as oral suspension or by oral or nasal inhalation
  parent drug which reaches the bloodstream from the gastrointestinal tract: less than 1%
